# Test results as given in patent US10995068B2, “Synthetic sphingolipid-like molecules, drugs, methods of their synthesis and methods of treatment” (The Regents of the University of California, priority 2015, dated 2021).
# How the values were obtained:
# [1] = system: autochthonous prostate tumor (pDKO); assay: pDKO autochthonous prostate cancer mouse model; type: in vivo
# Experimental: To determine the sensitivity, SH-BC-893 was evaluated in a validated genetically-engineered mouse model for invasive castration-resistant prostate cancer that lacks p53 and PTEN expression exclusively in the prostate (pDKO) (Wu X, et al. Am J Clin Exp Urol. 2014; 2(2):111-20; Schwarzenböck S, et al. Theranostics. 2012; 2(3):318-330; Chen Z, et al. Nature. 2005; 436(7051):725-730; the disclosures of which are herein incorporated by reference). […] SH-BC-893, however, still produced a phenotype consistent with starvation as the bound NADH fraction increased and cell permeant nutrients protected mPCE cells from death (FIGS. 65A and 65C). Prostate cancer cells depend on exogenous LDL for growth and survival. […] Ceramide and YM201636 both reduced surface LDLr levels, but LDLr still accumulated in different intracellular compartments (FIG. 66A). Consistent with their ability to block lysosomal fusion (FIG. 61), both YM201636 and SH-BC-893 reduced LDL co-localization with Lysotracker Blue (FIGS. 65F and 65G). In keeping with the inhibition of LDL degradation in lysosomes, cellular lipid droplet content was inversely correlated with the extent of vacuolation (FIG. 66B). In summary, sphingolipid-like compounds, such as SH-BC-893, starve slow-growing neoplasms, such prostate cancer, by down-regulating nutrient transporters and blocking lysosomal nutrient generation.
# The ability of starvation-inducing sphingolipid-like drugs to affect the growth of slow growing or autochthonous neoplasms was also evaluated. In C57BL/6 mice bearing mPCE subcutaneous isografts, 60 mg/kg SH-BC-893 was given daily by gavage and slowed tumor growth by 60% similar to results with SW620 xenografts dosed with 20 mg/kg i.p. (FIGS. 53G-I and 65I). At 120 mg/kg, SH-BC-893 inhibited prostate tumor growth by more than 90% (FIG. 65I). […] Akt activity was slightly elevated by SH-BC-893 consistent with loss of TORC1-mediated negative feedback. Thus, sphingolipid-like compounds, such as SH-BC-893, are effective against neoplasms with distinct molecular defects and metabolic characteristics.
# SH-BC-893 produces equivalent transporter loss and vacuolation in normal and transformed cells and therefore also limits the access of normal cells to nutrients (FIGS. 51C, 51E, 56B and 56C). […] The lack of toxicity to normal tissues is consistent with the finding that non-transformed cells can adapt to nutrient stress that triggers a bioenergetic crisis in less metabolically flexible tumor cells (FIGS. 53D and 53E).
# In vivo studies. Experiments conducted in mice were performed in accordance with the Institutional Animal Care and Use Committee of University of California, Irvine following a power analysis conducted in consultation with the Biostatistics Shared Resource of Chao Family Comprehensive Cancer Center at UCI. Xenografts were produced by injecting 5 million cells subcutaneously in the flank of 10-16 week-old male or female NSG mice. Prostate isografts were produced in the same manner but in male 6-8 wk old C57BL/6 mice. Once tumors reached 100 mm^3, SH-BC-893 was administered by intraperitoneal (i.p.) injection or oral gavage as indicated. Tumor volume was calculated using the formula, volume (mm^3)=length [mm]×(width [mm])^2×0.52; BLI was measured using an IVIS imaging system (Xenogen). To generate pDKO mice on the C57BL6 background, Pten^flox mice (stock No. 0045597) and p53^flox mice (stock No. 008462) were obtained from the Jackson Laboratory and PB-Cre4 mice (strain #01XF5) were obtained from the NCI-Frederick Mouse Repository. Age-matched cohorts of pDKO males were generated by in vitro fertilization executed with the assistance of the Transgenic Mouse Facility at UC Irvine. Treatment was begun at 6-7 wks of age. […] Tumor samples were processed and imaged by the Pathology Research Services Core Facility at UC Irvine. Blood chemistry was analyzed by IDEXX BioResearch and complete blood counts were performed using a Hemavet hematology system.
# [2] = system: K-RasG12D expressing cells; assay: Macropinosome fusion with lysosomes; type: cell-based; details: dextran
# Excerpt: In cells with activated Ras, macropinocytosis might also confer resistance to nutrient transporter down-regulation. However, PI(3,5)P2 is also required for macropinosome degradation. […] Macropinosomes that fail to fuse with lysosomes would not be able to supply nutrients, such as amino acids. Thus, by disrupting PIKfyve localization, sphingolipid-like compounds limit access to lysosome-derived nutrients at the same time it down-regulates transporters for amino acids and glucose.
# Light Microscopy: Brightfield and epifluorescence microscopy were conducted using a Nikon TE2000-S fluorescence microscope; confocal microscopy was performed on a Zeiss LSM780 confocal microscope or Nikon Eclipse Ti spinning disk confocal microscope. […] Co-localization was determined using JACoP plugin in ImageJ software. Macropinocytosis was measured after 16 h incubation in serum-free DMEM. p53−/−; LSL-K-RasG12D MEFs before (LSL) or after (KRasG12D) introduction of Cre were serum starved for 16 h and then treated with macropinocytosis inhibitor 5-(N-ethyl-N-isopropyl) amiloride (EIPA, 75 μM) for 1 h or SH-BC-893 for 6 h. Oregon Green dextran (Life Technologies, cat #D7173) (1 mg/mL) and Lysotracker Red (Life Technologies, cat #L-7525) (1:2,000 dilution) were added for 30 min and live cells were evaluated on the spinning disc confocal microscope. […]
smiles,measurement,setting,value
"CCCCCCCCc1ccc([C@H]2CCN[C@@H]2CO)cc1.Cl [Compound 5, (2S,3R)-2-(hydroxymethyl)-3-(4-octylphenyl)Pyrrolidinium chloride]",histopathology of intestinal crypts,[1]; mice treated with 120 mg/kg for 11 weeks,normal
same,weight gain,[1]; pDKO mice,gained less weight than untreated mice
same,decrease of autochthonous tumor growth,"[1]; pDKO mice, 60 mg/kg",62%
same,decrease of autochthonous tumor growth,"[1]; pDKO mice, 120 mg/kg",82%
same,"prostate tumor progression, histology","[1]; pDKO mice, treated mice exclusively exhibited prostatic intraepithelial neoplasia",slowed prostate tumor progression
same,TORC1-dependent ribosomal protein S6 phosphorylation in tumors,[1]; treated prostate tumors,reduced
same,macropinosome fusion with lysosomes,[2],dramatically reduced macropinosome fusion with lysosomes
